Test results published in patent publication US10322136B2, “Composition for inhibiting growth or proliferation of chronic myelogenous leukemia cancer stem cells, and screening method therefor” (HIROSHIMA UNIVERSITY, priority 2015, dated 2019).

Legend:
normal HSCs [1] = settings: mouse, in vivo
Source text: C57BL/6 (CD45.2 for the Ly5 locus) and congenic C57BL/6 (CD45.1 for the Ly5 locus; B6-Ly5.1) mice were purchased from Sankyo-Lab Service (Tsukuba, Japan). Lethally irradiated (9 Gy) C57BL/6 (CD45.2) recipient mice were reconstituted with 1×10^4 normal KLS^+ cells (HSCs) from congenic C57BL/6 (CD45.1) (B6-Ly5.1) mice in competition with 5×10^5 unfractionated BM MNCs derived from C57BL/6 (CD45.2) mice. Transplanted recipients then received vehicle or cefadroxil (36 mgKg^−1day^−1) from day 0 to 8 weeks post transplantation. Reconstitution of donor-derived cells (CD45.1) was monitored at 4 and 8 weeks post transplantation by flow cytometric analysis of peripheral blood mononuclear cells stained with monoclonal antibodies (mAbs) against CD45.2 (104)-FITC and CD45.1 (A20)-PE.

Raptor-Ser863 = test: Duolink in situ PLA, Raptor-Ser863 phosphorylation in LT-CML cancer stem cells; type: cell-based, mouse; settings: 30 min; GlySar or cefadroxil 5 μM; rapamycin 100 nM
Experimental: To examine phosphorylation of Smad2, Smad3, p38MAPK, AMPK, and S6 ribosomal protein, and Foxo3a-Smad2 and Foxo3a-Smad3 interactions, Duolink® in situ PLA assay (Olink Bioscience) was used. LT-CML stem cells, ST-CML stem cells, CD48^+, MPP, and KLS^− CML cells that were freshly isolated from CML-affected mice, and LT-normal HSCs that were freshly isolated from healthy control littermates, were immediately fixed with 4% paraformaldehyde for 30 min.
For in vitro inhibitor experiments, LT-CML stem cells were incubated in 3% O2 at 37° C. for 30 min with vehicle (control; artificial gastric fluid solution (900 ml ddH2O containing 2.0 g of NaCl, 7 ml of conc. HCl and 3.2 g of pepsin)), 5 μM Ly364947 (TGF-β type I receptor kinase Alk5 inhibitor; Merck), 5 μM SB203580 (p38MAPK inhibitor; LC Laboratories), 5 μM GlySar (dipeptide transporter inhibitor; Sigma-Aldrich), 5 μM cefadroxil (dipeptide transporter inhibitor; Sigma-Aldrich), or 100 nM rapamycin (mTORC1 inhibitor; Cell Signaling Technologies). […]
The proximate binding of these antibodies was then detected using Duolink® in situ PLA system which employs a set of two secondary antibodies in which one is conjugated to a minus strand PLA probe and the other is conjugated to a plus strand PLA probe. […] The number of fluorescent foci per single cell was quantified using Duolink®Image Tool software (Olink Bioscience).

normal HSCs [2] = test: Colony-forming assay, LT-normal HSCs on OP-9 stromal cells; type: cell-based, mouse; settings: 5 μM, 5 days, hypoxic (3% O2)
Experimental: LT-CML stem cells or LT-normal HSCs (1×10^3/plate) were co-cultured on OP-9 stromal cells for 5 days in the presence of either vehicle (control) or a dipeptide transporter inhibitor cefadroxil (5 μM). Cells were harvested, washed with PBS, and plated in semi-solid methylcellulose medium containing SCF, IL-3, IL-6 and erythropoietin (Methocult GF M3434; Stem Cell Technologies). After growth for 7 days in a humidified atmosphere containing 5% CO2 at 37° C., colony numbers were counted under a light microscope.

CML-KLS+ cells = test: Number of GFP/BCR-ABL1+ CML-KLS+ cells in BM of treated CML-affected mice; type: in vivo, mouse; settings: daily for 30 days post transplantation
Experimental: Briefly, CML-affected mice received by oral gavage for 30 days post BM transplantation as described above. The number of GFP/BCR-ABL1+CML-KLS+ cells among total GFP/BCR-ABL1+CML cells isolated from BM MNCs acquired from the two hindlimbs of treated CML-affected mice was assessed by flow cytometry. Freshly purified GFP/BCR-ABL1^+CML-KLS^+ cells (3×10^4) were then serially transplanted into a second set of lethally irradiated congenic recipient mice along with 5×10^5 normal BM MNCs derived from C57BL/6 mice. Mouse survival and disease recurrence were monitored for 90 days.

SMILES: CC1=C(C(=O)O)N2C(=O)[C@@H](NC(=O)[C@H](N)c3ccc(O)cc3)[C@H]2SC1 [cefadroxil]
- frequency of donor-derived CD45.1 MNCs in peripheral blood (normal HSCs [1]): no increase
- phosphorylation of Raptor-Ser863 (Raptor-Ser863): decreased phosphorylation
- colony-forming capacity of normal HSCs (normal HSCs [2]): maintained normal levels
- number of CML-KLS+ cells among GFP/BCR-ABL1+ CML cells from BM (CML-KLS+ cells): significantly decreased
